Data published in patent US20090012091A1, “Oximide derivatives and their therapeutical application” (KinaGen, Inc., priority 2007, published 2009).

Target: T1, B-raf kinase (Homo sapiens, UniProt P15056)
T1 construct: made in house; host or cells: Sf9 insect cells (baculovirus)
Assay: in vitro Raf Kinase Assay (33P-phosphate incorporation into GST-kdMEK)
Assay type: biochemical
Conditions: human recombinant Raf protein, substrate GST-kdMEK, 33P-ATP, 25° C., 90 minutes; read-out: IC50 (concentration of test compound required to inhibit 50% of the B-raf kinase activity)
Protocol: Activity of human recombinant Raf protein was assessed in vitro by assay of the incorporation of radiolabelled phosphate to recombinant MAP kinase (MEK), a known physiologic substrate of Raf. Catalytically active human recombinant Raf protein was obtained by purification from sf9 insect cells infected with a human Raf recombinant baculovirus expression vector.
Method: Standard assay conditions of Raf catalytic activity utilized […] of GST-kdMBK, 10 µM ATP and 2 uCi ^33P-ATP, 50 mM MOPS, 0.1 mM EDTA, 0.1M sucrose, 10 mM MgCl2 plus 0.1% dimethylsulphoxide (containing compound where appropriate) in a total reaction volume of 30 ul. Reactions were incubated at 25° C. for 90 minutes and reactions terminated by addition of EDTA to a final concentration of […]. 10 ul of reaction was spotted to P30 phosphocellulose paper and air dried. Following four washes in ice cold 10% trichloroacetic acid, 0.5% phosphoric acid, papers were air dried prior to addition of liquid scintillant and measurement of radioactivity in a scintillation counter. The % inhibition of the B-raf kinase activity is calculated and plotted in order to determine the concentration of test compound required to inhibit 50% of the B-raf kinase activity (IC50).

T1 sequence (P15056 whole entry): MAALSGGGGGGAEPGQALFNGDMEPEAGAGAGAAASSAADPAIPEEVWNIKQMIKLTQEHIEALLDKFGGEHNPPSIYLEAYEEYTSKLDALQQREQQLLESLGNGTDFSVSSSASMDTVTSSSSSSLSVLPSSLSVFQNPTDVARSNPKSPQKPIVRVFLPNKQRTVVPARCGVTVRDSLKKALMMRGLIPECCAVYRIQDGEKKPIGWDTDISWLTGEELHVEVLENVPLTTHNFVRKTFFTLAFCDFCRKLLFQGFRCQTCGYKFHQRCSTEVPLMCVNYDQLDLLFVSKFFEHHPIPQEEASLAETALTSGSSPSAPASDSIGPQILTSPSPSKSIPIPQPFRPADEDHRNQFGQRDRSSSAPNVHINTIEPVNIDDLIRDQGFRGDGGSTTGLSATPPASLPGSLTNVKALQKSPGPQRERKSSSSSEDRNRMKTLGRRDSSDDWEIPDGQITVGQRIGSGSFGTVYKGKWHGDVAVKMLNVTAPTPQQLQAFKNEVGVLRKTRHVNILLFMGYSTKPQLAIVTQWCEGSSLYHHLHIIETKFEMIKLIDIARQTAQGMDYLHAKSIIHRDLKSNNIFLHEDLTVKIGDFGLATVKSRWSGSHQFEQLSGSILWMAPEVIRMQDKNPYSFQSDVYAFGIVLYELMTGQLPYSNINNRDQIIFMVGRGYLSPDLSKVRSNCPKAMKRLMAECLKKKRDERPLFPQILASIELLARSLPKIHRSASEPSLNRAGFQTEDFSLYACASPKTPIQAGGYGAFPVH

SMILES	IC50 [nM]
CC(C)(C)OC(=O)c1cc(Oc2ccc(NC(=O)Nc3ccc(Cl)c(C(F)(F)F)c3)cc2)ccn1 [Compound 3, tert-butyl 4-(4-(3-(4-chloro-3-(trifluoromethyl)phenyl)ureido)phenoxy)picolinate]	< 10000
CONC(=O)c1cc(Oc2ccc(NC(=O)Nc3ccc(Cl)c(C(F)(F)F)c3)cc2)ccn1 [Compound 5, 4-(4-(3-(4-chloro-3-(trifluoromethyl)phenyl)ureido)phenoxy)-N-methoxypicolinamide]	< 1000
CCN(CC)C(=O)CONC(=O)c1cc(Oc2ccc(NC(=O)Nc3ccc(Cl)c(C(F)(F)F)c3)cc2)ccn1 [Compound 10, 4-(4-(3-(4-chloro-3-(trifluoromethyl)phenyl)urei-do)phenoxy)-N-(2-(diethylamino)-2-oxoethoxy)picolinamide]	< 1000
CONC(=O)c1cc(Oc2ccc(NC(=O)Nc3ccc(Cl)cc3)cc2)ccn1 [Compound 12, 4-(4-(3-(4-chlorophenyl)ureido)phenoxy)-N-methoxypicolinamide]	< 1000
CN(C)C(=O)CONC(=O)c1cc(Oc2ccc(NC(=O)Nc3ccc(Cl)c(C(F)(F)F)c3)cc2)ccn1 [Compound 11, 4-(4-(3-(4-chloro-3-(trifluoromethyl)phenyl)urei-do)phenoxy)-N-(2-(dimethylamino)-2-oxoethoxy)picolinamide]	< 1000
CN(C)CCONC(=O)c1cc(Oc2ccc(NC(=O)Nc3ccc(Cl)c(C(F)(F)F)c3)cc2)ccn1 [Compound 9, 4-(4-(3-(4-chloro-3-(trifluoromethyl)phenyl)urei-do)phenoxy)-N-(2-(dimethylamino)ethoxy)picolinamide]	< 1000
CCCONC(=O)c1cc(Oc2ccc(NC(=O)Nc3ccc(Cl)c(C(F)(F)F)c3)cc2)ccn1 [Compound 6, 4-(4-(3-(4-chloro-3-(trifluoromethyl)phenyl)urei-do)phenoxy)-N-propoxypicolinamide]	< 1000
CONC(=O)c1cc(Oc2ccc(NC(=O)Nc3cccc(C(F)(F)F)c3)cc2)ccn1 [Compound 13, N-methoxy-4-(4-(3-(3-(trifluoromethyl)phenyl)urei-do)phenoxy)picolinamide]	< 1000
COc1ccc(NC(=O)Nc2ccc(Oc3ccnc(C(=O)NOC4CCC4)c3)cc2)cc1OC [Compound 19, N-cyclobutoxy-4-(4-(3-(3,4-dimethoxyphenyl)urei-do)phenoxy)picolinamide]	< 1000
O=C(Nc1ccc(Oc2ccnc(C(=O)O)c2)cc1)Nc1ccc(Cl)c(C(F)(F)F)c1 [Compound 4, 4-(4-(3-(4-chloro-3-(trifluoromethyl)phenyl)ureido)phenoxy)picolinic acid]	< 10000
CCONC(=O)c1cc(Oc2ccc(NC(=O)Nc3ccc(Cl)c(C(F)(F)F)c3)cc2)ccn1 [Compound 7, 4-(4-(3-(4-chloro-3-(trifluoromethyl)phenyl)urei-do)phenoxy)-N-ethoxypicolinamide]	< 1000
CCN(CC)CCONC(=O)c1cc(Oc2ccc(NC(=O)Nc3ccc(Cl)c(C(F)(F)F)c3)cc2)ccn1 [Compound 8, 4-(4-(3-(4-chloro-3-(trifluoromethyl)phenyl)urei-do)phenoxy)-N-(2-(diethylamino)ethoxy)picolinamide]	< 1000

The next lines start with the values.

IC50 [nM]	SMILES
< 1000	CNC(=O)c1cc(Oc2ccc(NC(=O)Nc3ccc(Cl)c(C(F)(F)F)c3)cc2)ncn1 [Compound 23, 6-(4-(3-(4-chloro-3-(trifluoro-methyl)phenyl)ureido)phenoxy)-N-methylpyrimidine-4-carboxamide]
< 1000	O=C(Nc1ccc(Oc2cc(C(=O)NCCO)ncn2)cc1)Nc1ccc(Cl)c(C(F)(F)F)c1 [Compound 22, 6-(4-(3-(4-chloro-3-(trifluoro-methyl)phenyl)ureido)phenoxy)-N-(2-hydroxyethyl)pyrimidine-4-carboxamide]
< 1000	CN(C)CCNC(=O)c1cc(Oc2ccc(NC(=O)Nc3ccc(Cl)c(C(F)(F)F)c3)cc2)ncn1 [Compound 27, 6-(4-(3-(4-chloro-3-(trifluoro-methyl)phenyl)ureido)phenoxy)-N-(2-(dimethylamino)ethyl)pyrimidine-4-carboxamide]
< 1000	CONC(=O)c1cc(Oc2ccc(NC(=O)Nc3ccc(Cl)c(Cl)c3)cc2)ccn1 [Compound 14, 4-(4-(3-(3,4-dichlorophenyl)ureido)phenoxy)-N-methoxypicolinamide]
< 1000	CONC(=O)c1cc(Oc2ccc(NC(=O)Nc3ccc(Cl)c(C(F)(F)F)c3)cc2)ncn1 [Compound 26, 6-(4-(3-(4-chloro-3-(trifluoro-methyl)phenyl)ureido)phenoxy)-N-methoxypyrimidine-4-carboxamide]
< 1000	CNC(=O)c1cc(Oc2ccc(NC(=O)Nc3ccc(Cl)cc3)cc2)ncn1 [Compound 24, 6-(4-(3-(4-chlorophenyl)ureido)phenoxy)-N-methylpyrimidine-4-carboxamide]
< 1000	CCONC(=O)c1cc(Oc2ccc(NC(=O)Nc3ccc(Cl)c(C(F)(F)F)c3)cc2)ncn1 [Compound 25, 6-(4-(3-(4-chloro-3-(trifluoro-methyl)phenyl)ureido)phenoxy)-N-ethoxypyrimidine-4-carboxamide]
< 1000	O=C(Nc1ccccc1)Nc1ccc(Oc2ccnc(C(=O)NOC3CCCCC3)c2)cc1 [Compound 18, N-(cyclohexyloxy)-4-(4-(3-phenylureido)phenoxy)picolinamide]
< 1000	O=C(Nc1ccc(Oc2ccnc(C(=O)NOC3CCCC3)c2)cc1)Nc1ccc(Cl)c(Cl)c1 [Compound 17, N-(cyclopentyloxy)-4-(4-(3-(3,4-dichloro-phenyl)ureido)phenoxy)picolinamide]
< 1000	CNC(=O)c1ncnc(Oc2ccc(NC(=O)Nc3ccc(Cl)c(C(F)(F)F)c3)cc2)n1 [Compound 28, 4-(4-(3-(4-chloro-3-(trifluoro-methyl)phenyl)ureido)phenoxy)-N-methyl-1,3,5-triazine-2-carboxamide]
< 10000	CCNC(=O)c1cc(Oc2ccc(NC(=O)c3ccc(Cl)cc3)cc2)ccn1 [Compound 20, 4-(4-(4-chloro-benzamido)phenoxy)-N-ethylpicolinamide]
< 1000	CONC(=O)c1cc(Oc2ccc(NC(=O)Nc3ccccc3)cc2)ccn1 [Compound 15, N-methoxy-4-(4-(3-phenylureido)phenoxy)picolinamide]
< 1000	CONC(=O)c1cc(Oc2ccc(NC(=O)Nc3ccc(OC)c(OC)c3)cc2)ccn1 [Compound 16, 4-(4-(3-(3,4-dimethoxyphenyl)ureido)phenoxy)-N-methoxypicolinamide]
< 10000	CCNC(=O)c1cc(Oc2ccc(NC(=O)c3ccc(Cl)c(Cl)c3)cc2)ccn1 [Compound 21, 4-(4-(3,4-dichlorobenzamido)phenoxy)-N-ethylpicolinamide]
